This note sets out measurements from ChEMBL document CHEMBL1201862, “PubChem BioAssay data set” (2004).

SMILES strings stand for the structures.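 Exposure lasted 48 hours, with cells grown in 96-well plates and compounds tested at five concentrations. Here, GI50 denotes the concentration required for 50% inhibition of growth.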 Calls of active or inactive are those of the source. Cut-off read from the data, not from the text of the source: active = GI50 up to about 1.1 µM and inactive = higher. Where only a bound is given, the exact number is not on record here.

Holding throughout (assay): NCI-60 cell line screen, 48 h
The test system of assay [1] is A549.
Assay [2] deals with ACHN.
Assay [3] concerns HCT-15.
The subject of assay [4] is HOP-92.
Assay [5] deals with HT-29.
For assay [6], the system named is Hs-578T.
Assay [7] deals with IGROV-1.
Assay [8] deals with M19-MEL.
Assay [9] relates to MDA-N.
In assay [10] the test system is OVCAR-5.
The test system of assay [11] is OVCAR-8.
Assay [12] concerns RPMI-8226.
Assay [13] relates to SF-268.
The subject of assay [14] is SF-539.
In assay [15] the test system is SK-MEL-2.
In assay [16] the test system is SN12C.
Assay [17] relates to SNB-75.
Assay [18] has as its system T47D.
Assay [19] relates to U-251.
Assay [20] has as its system UACC-62.

`C=C1C(=O)C=C2C=C3C(=O)C(C)(C)C[C@]3(O)C12C` (some centres undefined): the GI50 in assay [1] was 20000 nM (inactive); in [2], 2230 nM (inactive); in assay [3], 2250 nM; in [4] it was 1590 nM (inactive); in assay [5] it was 3270 nM (inactive); in assay [6], 8220 nM (inactive). Moreover, the GI50 in assay [7] is 18000 nM (inactive); in assay [8], 5680 nM (inactive); in [9], 3760 nM (inactive); in assay [10], 9550 nM (inactive); in [11], 8570 nM (inactive); in assay [12] it was 1210 nM (inactive). The GI50 in assay [13] is 5650 nM (inactive); in [14] it was > 43200 nM (inactive); in [15] it was 17800 nM (inactive); in assay [16], 9400 nM (inactive); in assay [17], 14200 nM (inactive); in assay [18], 2150 nM (inactive). Further, the figures for the GI50 in [19] and in [20] were 17900 nM (inactive) and 8390 nM (inactive), respectively.
Regarding `COc1ccc(/C=C2/CSC/C(=C/c3ccc(OC)c(OC)c3)C2=O)cc1OC`, the GI50 was 2270 nM (inactive) in assay [1]; 2310 nM (inactive) in assay [2]; 1520 nM in [3]; 8930 nM (inactive) in assay [4]; 1090 nM (active) in assay [5]; 2280 nM (inactive) in assay [7]. The GI50 in assay [8] is 2140 nM (inactive); in assay [9], 2580 nM (inactive); in assay [10], 4620 nM (inactive); in [11], 664 nM (active); in [12], 472 nM (active); in assay [13], 1990 nM (inactive). The GI50 in assay [14] was 2030 nM (inactive); in assay [15] it was 2560 nM (inactive); in assay [16], 1770 nM (inactive); in assay [17], 6400 nM (inactive); in assay [18], 2210 nM (inactive); in assay [19], 1010 nM (active). The GI50 in assay [20] is 1690 nM (inactive).
With `O=Nc1ccc(O)c2ncccc12`, the GI50 in assay [1] was 2500 nM (inactive); in assay [2] it was 3130 nM (inactive); in assay [3], 2520 nM; in assay [4], 3090 nM (inactive); in assay [5], 15300 nM (inactive); in [6], 531 nM (active). In addition, the GI50 in assay [7] is 5460 nM (inactive); in assay [8], 4250 nM (inactive); in [9] it was 1750 nM (inactive); in assay [10], 15700 nM (inactive); in [11], 3470 nM (inactive); in assay [12], 3520 nM (inactive). Also, the GI50 in assay [13] was 3680 nM (inactive); in assay [14], 1440 nM (inactive); in assay [15] it was 2210 nM (inactive); in [16] it was 8180 nM (inactive); in assay [17], 2510 nM (inactive); in assay [18], 7530 nM (inactive). For the same compound, the results for the GI50 in [19] and in assay [20] were 3310 nM (inactive) and 875 nM (active), respectively.
